# Data reported in publication PMC4234457, “Primary porcine proximal tubular cells as an alternative to human primary renal cells in vitro: an initial characterization” (BMC Cell Biology, 2013).
# Counter-ions that a name gives are not always drawn. Like-named read-outs stand apart in the source and are kept apart here.
# Key:
# Oat1 or Oat3 = assay: Transporter induction experiments (RT-PCR of transporter mRNA in PKC); format: cell-based, porcine
# Description: For transporter induction experiments, freshly isolated PKC cells were seeded (total of 2 × 10^4 cells cm^-2) on 6-well ThinCert PET tissue culture inserts in standard culture medium and medium was changed every 48 hours. […] After 48 hours of exposure, samples for RNA extraction were prepared by standard trypsin-EDTA treatment followed by washing with PBS. Resulting cell pellets were snap-frozen and stored at -80°C until use.
# Total RNA was prepared from cell pellets and minced pieces of tissue (rat kidney and porcine kidney cortex) via the phenol-chloroform method using Trizol (Invitrogen, Karlsruhe, Germany). Concentration and quality was estimated via 260/280 nm values. Representative samples were tested for RNA integrity via denaturing electrophoresis. cDNA was prepared using 1 μg total RNA, Oligo (dT)18 and M-MuLV reverse transcriptase according to manufacturer’s instructions. PCR was performed using 2 μl cDNA sample, 2 × PCR Master Mix, specific primers (Table 3). Amplification was performed with an initial denaturation step at 92°C for 3 min followed by 30 cycles of 94°C for 60 sec, 58°C for 60 sec and 72°C for 60 sec and a final extension step at 72°C for 7 min.
# PKC [1] = assay: Inhibition of cellular PAH uptake in PKC; conditions: 50 μM PAH, inhibitor 1 mM, 10 min; for Reduction of PAH BBM uptake: Figure 3A
# Description: For transport studies, PKC were seeded (1 × 10^5 cells/cm^2) on 6-well PET filter inserts with 0.4 μm pore size. The use of filter inserts allows measurement of transport across the BLM (basolateral membrane) and the BBM (brushborder membrane) by addition of substrates to media in the lower and upper compartment, respectively. […] The cells were incubated at 37°C for the indicated times. […] Thereafter, cells were acidified with 1 M HCl and an aliquot was used for protein determination using the Bradford assay. 1 ml of medium from each compartment and of solubilized cells was placed into 10 ml scintillation cocktail and radioactivity was measured in a Beckman LS 6500 scintillation counter.
# [2] = tested on: primary porcine kidney cells (PKC); assay: MTT reduction cytotoxicity assay in PKC; conditions: for EC50: read-out: EC50 (cytotoxicity), 1-500 μM, positive control
# Description: Cytotoxicity experiments using the MTT reduction assay as previously described, were conducted to estimate non-toxic concentrations for subsequent analyses. All chemicals and stock solutions (Tables 1 and 2) were sterilized by filtration (0.2 μm) prior to testing. […] Absorbance was read at 550 nm using a microplate reader (Infinite M200, Tecan, Crailsheim, Germany).
# Conversely, in the transport induction experiments (prolonged substrate exposure/low concentrations, Table 2) cytotoxicity was determined after 24, 48, 72 and 96 hours of exposure. All assays were performed with the respective vehicle controls (Tables 1 and 2) and cadmium chloride as positive control.
# Cytotoxicity data were calculated as means ± SEM from at least three independent replicate experiments conducted in technical duplicates, followed by a One-way ANOVA with a subsequent Dunnett’s multiple comparison test (P < 0.05).
# pOat3 = conditions: cited from earlier work; for Inhibitory effect on pOat3-mediated ES transport: oocytes
# hOAT3 = conditions: cited from earlier work
# OAT3 (SLC22A8) = tested on: OAT3 (SLC22A8); design: method as in supplement 1; conditions: Rat, cited from earlier work
# pOat1 = conditions: cited from earlier work; for Inhibition of pOat1-mediated PAH uptake: oocytes
# PKC [3] = assay: Transport assays (kinetics): cellular uptake of radiolabelled PAH and MTX across BBM and BLM of PKC on filter inserts; format: in vitro ADME, porcine; conditions: for Km: confluent PKC, 30 min incubation, mean ± SEM, n = 3
# Description: For transport studies, tightness of the cellular monolayers was inspected microscopically before use. Additionally, radiolabelled substrates were measured in the both chambers (above and below the cell layer) to determine cell layer leakiness. In case of lacking or reduced tightness of the monolayer, very high counts (dpm) were measured in the respective opposite compartment. These resulting counts (dpm) were several-magnitudes greater than those that could have been expected from potential transepithelial transport. Data from cell preparations with such apparent cell layer leakiness were omitted from calculation.
# For kinetic data, raw transport data (dpm) were submitted to intra-assay normalization using the blanks described above and calculated using the following equation:
# meandpm×totalvolume/countedvolume×60sec×specificactivity×proteincontent×assaytime=substratepmol/mg×min
# [4] = tested on: primary human proximal tubular cells; design: method as in PMID 16997449; conditions: cited from earlier work
# hOAT1 = conditions: hOAT1, MTX; cited from earlier work
# hOAT4 = conditions: hOAT4, MTX; cited from earlier work
# hMRP4 = conditions: hMRP4, MTX; cited from earlier work
# [5] = PKC, 50 nM or 1 μM to basolateral compartment, 48 hours, RT-PCR
structure (smiles),measurement,setting,value
O=C1OC(c2ccc(O)c(S(=O)(=O)O)c2)(c2ccc(O)c(S(=O)(=O)O)c2)c2c(Br)c(Br)c(Br)c(Br)c21 [bromosulphophthalein],Stimulatory effect on transporter mRNA expression,Oat1 or Oat3; [5],none of the tested substances showed any stimulatory effect
same,Reduction of PAH BBM uptake,PKC [1],up to 30%
[Cl][Cd][Cl] [cadmium chloride],Cytotoxicity on longer exposure,"[2]; PKC, MTT, exposure >48 hours (data not shown)",did not result in further increased cytotoxicity
same,EC50,"[2]; PKC, MTT, 24 hours of exposure",103 µM
same,EC50,"[2]; PKC, MTT, 48 hours of exposure",57.2 µM
C[C@]12CC[C@H](OS(=O)(=O)O)CC1=CC[C@@H]1[C@@H]2CC[C@]2(C)C(=O)CC[C@@H]12 [dehydroepi-androsteron sulfate],Stimulatory effect on transporter mRNA expression,Oat1 or Oat3; [5],none of the tested substances showed any stimulatory effect
same,Inhibitory effect on pOat3-mediated ES transport,pOat3,inhibitory effect
C[C@]12CC[C@@H]3c4ccc(OS(=O)(=O)O)cc4CC[C@H]3[C@@H]1CCC2=O [estrone sulfate],Km,"pOat3; pOat3 expressed in X. laevis oocytes, read-out: apparent Km",7.8 ± 1.3 µM
same,Km,"hOAT3; hOAT3, ES, read-out: Km",3.1 to 9.5 µM
same,Km,"OAT3 (SLC22A8); ref supplement 1, read-out: KM (ES)",2.3 to 5.3 µM
same,Inhibition of PAH uptake from either direction (BBM or BLM),PKC [1],not able to inhibit PAH uptake
O=C(O)CCCC(=O)O [glutarate],Inhibition of pOat1-mediated PAH uptake,pOat1; 0.5 mM,could be inhibited
same,Inhibitory effect on pOat3-mediated ES transport,pOat3,inhibitory effect
CN(Cc1cnc2nc(N)nc(N)c2n1)c1ccc(C(=O)N[C@@H](CCC(=O)O)C(=O)O)cc1 [methotrexate],Cellular uptake,"PKC [3]; PKC, radiolabelled substrate",negligible
same,Km,"[4]; human kidney cells (HKC), hOAT1-associated, read-out: Km of MTX transport across the BBM",80.4 ± 3.4 µM
same,Km,"[4]; human kidney cells (HKC), hOAT1-associated, read-out: Km of MTX transport across the BLM",28.5 ± 1.1 µM
same,Km,hOAT1,554 to 724 µM
same,Km,"hOAT3; hOAT3, MTX, read-out: Km",10.9 to 21.1 µM
same,Km,hOAT4,17.8 µM
same,Km,hMRP4,220 to 1300 µM
same,Reduction of PAH BBM uptake,PKC [1],up to 30%
C[C@@H]1Cc2c(Cl)cc(C(=O)N[C@@H](Cc3ccccc3)C(=O)O)c(O)c2C(=O)O1 [ochratoxin A],Reduction of PAH BBM uptake,PKC [1],up to 30%
Nc1ccc(C(=O)NCC(=O)O)cc1 [p-aminohippuric acid],Time to saturation of PAH uptake,"PKC [3]; PKC, 50 μM substrate, Figure 2B",5 to 10 min
same,BBM uptake compared to BLM uptake,"PKC [3]; PKC, PAH uptake, Figure 2A",about 3 times
same,Km,"PKC [3]; basolateral membrane, read-out: Km of PAH uptake across BLM",187 ± 70.2 µM
same,Km,"PKC [3]; brushborder membrane, read-out: Km of PAH uptake across BBM",58.8 ± 12.6 µM
same,Km,"[4]; primary human proximal tubular cells, read-out: BBM Km of PAH uptake",36.6 ± 1.2 µM
same,Km,"[4]; primary human proximal tubular cells, read-out: BLM Km of PAH uptake",57.5 ± 4.1 µM
same,Km,"pOat1; OAT1 (SLC22A6), Pig, ref supplement 1, 2, read-out: KM (PAH)",3.7 µM
same,Affinity of the other pOat1 variant,pOat1; one pOat1 splice variant expressed in Xenopus laevis oocytes,did not show any affinity
same,Km,"pOat1; pOat1 variant expressed in Xenopus laevis oocytes, read-out: apparent Km",3.75 ± 1.6 µM
same,Km,"hOAT3; OAT3 (SLC22A8), Human, ref supplement 1, read-out: KM (PAH)",50 to 100 µM
same,Km,"OAT3 (SLC22A8); ref supplement 1, read-out: KM (PAH)",60 to 65 µM
CCCN(CCC)S(=O)(=O)c1ccc(C(=O)O)cc1 [probenecid],Inhibition of pOat1-mediated PAH uptake,pOat1; 1 mM,could be inhibited
same,Inhibitory effect on pOat3-mediated ES transport,pOat3,inhibitory effect
same,Inhibition of PAH uptake from either direction (BBM or BLM),PKC [1],did not show any inhibitory effect
C[C@H](CCC(=O)NCCS(=O)(=O)O)[C@H]1CC[C@H]2[C@@H]3[C@H](O)C[C@@H]4C[C@H](O)CC[C@]4(C)[C@H]3C[C@H](O)[C@]12C [taurocholic acid],Significant effects (cytotoxicity of potential transporter inducers),[2],no
same,Stimulatory effect on transporter mRNA expression,Oat1 or Oat3,none of the tested substances showed any stimulatory effect
N[C@@H](Cc1cc(I)c(Oc2ccc(O)c(I)c2)c(I)c1)C(=O)O [triiodothyronine],Stimulatory effect on transporter mRNA expression,Oat1 or Oat3; [5],none of the tested substances showed any stimulatory effect
